Reference: patent US20230365592A1 (Agios Pharmaceuticals, Inc., priority 2022, published 2023)

target: T1, human PAH with the R408W mutation (Homo sapiens, UniProt P00439, R408W); assay: Cell Based Phenylalanine Flux Assay; settings: A375 cells expressing R408W PAH; 24 hrs with compound, then 20 µM sepiapterin and 800 µM 13C9,15N-Phenylalanine for 4 hours; 13C-Tyrosine by LC-MS; average where tested multiple times; read-out: AC50;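 note: after compound treatment, cells received sepiapterin plus isotope-labelled Phenylalanine for 4 hours, then labelled Tyrosine in the medium was quantified, 10-point 2-fold dilution series run in duplicate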
T1 construct: expressed in transfected cells
T1 sequence (P00439 1-452 R408W): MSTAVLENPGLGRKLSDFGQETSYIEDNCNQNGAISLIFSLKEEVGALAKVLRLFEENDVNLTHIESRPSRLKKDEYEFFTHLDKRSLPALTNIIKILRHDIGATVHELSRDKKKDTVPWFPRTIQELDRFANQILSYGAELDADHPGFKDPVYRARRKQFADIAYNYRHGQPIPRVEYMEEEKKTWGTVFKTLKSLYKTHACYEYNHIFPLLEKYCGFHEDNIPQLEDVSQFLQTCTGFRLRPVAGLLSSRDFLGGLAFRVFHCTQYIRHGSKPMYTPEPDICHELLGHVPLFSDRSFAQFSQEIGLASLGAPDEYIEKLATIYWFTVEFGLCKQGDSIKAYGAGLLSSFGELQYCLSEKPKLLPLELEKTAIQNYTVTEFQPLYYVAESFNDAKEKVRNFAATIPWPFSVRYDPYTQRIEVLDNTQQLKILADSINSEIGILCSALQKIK

| AC50 [nM] | Compound |
| --- | --- |
| 1000 to 5000 | O=C(c1ccn(-c2ccccn2)n1)N1CCc2[nH]cnc2C1c1cc2c(F)cccn2n1 (stereo not drawn) |
| 1000 to 5000 | FC(F)c1cccc2cc(C3c4nc[nH]c4CCN3c3ncccn3)nn12 (stereo not drawn) |
| 1000 to 5000 | Cc1ccc2cc(C3c4nc[nH]c4CCN3C(=O)c3ocnc3C(F)F)nn2c1 (stereo not drawn) |
| 1000 to 5000 | Cc1ccn2nc(C3c4nc[nH]c4CCN3C(=O)c3nnc(-c4cnn(C)c4)o3)cc2c1 (stereo not drawn) |
| 1000 to 5000 | Cc1nc(C(=O)N2CCc3[nH]cnc3C2c2cc3cccc(C)n3n2)n(C)n1 (stereo not drawn) |

| Compound | AC50 [nM] |
| --- | --- |
| COc1cccn2nc([C@@H]3c4nc[nH]c4CCN3C(=O)c3nnc(-c4ccn(C)n4)o3)cc12 (single isomer, unassigned) | 1000 to 5000 |
| O=C(c1cnco1)N1CCc2[nH]cnc2[C@H]1c1cc2ccc(F)cn2n1 (single isomer, unassigned) | 1000 to 5000 |

same assay, conditions: A375 cells expressing human PAH R408W; 24 hrs compound incubation; 13C-Tyrosine by LC-MS; average where tested multiple times; read-out: AC50

| AC50 [nM] | Compound |
| --- | --- |
| < 500 | Cc1cccn2nc([C@@H]3c4nc[nH]c4CCN3C(=O)c3nc4ccccc4o3)cc12 [Example 2020, (S)-benzo[d]oxazol-2-yl(4-(4-methylpyrazolo[1,5-a]pyridin-2-yl)-1,4,6,7-tetrahydro-5H-imidazo[4,5-c]pyridin-5-yl)methanone] |
| > 5000 | Cn1nccc1-c1nnc(C(=O)N2CCc3[nH]cnc3[C@@H]2c2cc3ccccn3n2)o1 [Example 2005, (R)-(5-(1-methyl-1H-pyrazol-5-yl)-1,3,4-oxadiazol-2-yl)(4-(pyrazolo[1,5-a]pyridin-2-yl)-1,4,6,7-tetrahydro-5H-imidazo[4,5-c]pyridin-5-yl)methanone] |
| < 500 | CC(C)c1cccn2nc([C@@H]3c4nc[nH]c4CCN3c3nnc(C4CC4)o3)cc12 [Example 2169, (S)-2-cyclopropyl-5-(4-(4-isopropylpyrazolo[1,5-a]pyridin-2-yl)-1,4,6,7-tetrahydro-5H-imidazo[4,5-c]pyridin-5-yl)-1,3,4-oxadiazole] |
| 1000 to 5000 | Nc1cnc(N2CCc3[nH]cnc3[C@@H]2c2cc3c(C(F)F)cccn3n2)nc1 [Example 1853, (R)-2-(4-(4-(difluoromethyl)pyrazolo[1,5-a]pyridin-2-yl)-1,4,6,7-tetrahydro-5H-imidazo[4,5-c]pyridin-5-yl)pyrimidin-5-amine] |

same assay, conditions: A375 cells expressing human R408W PAH; 24 hrs compound incubation; 13C-Tyrosine by LC-MS; average where tested multiple times; read-out: AC50

| Compound | AC50 [nM] |
| --- | --- |
| Cc1cccn2nc([C@@H]3c4nc[nH]c4CCN3C(=O)c3cnco3)cc12 [Example 768, (S)-(4-(4-methylpyrazolo[1,5-a]pyridin-2-yl)-6,7-dihydro-1H-imidazo[4,5-c]pyridin-5(4H)-yl)(oxazol-5-yl)methanone] | < 500 |
| Cn1cnc(-c2nnc(C(=O)N3CCc4[nH]cnc4[C@@H]3c3cc4c(C(F)(F)F)cccn4n3)o2)c1 [Example 935, (R)-(5-(1-methyl-1H-imidazol-4-yl)-1,3,4-oxadiazol-2-yl)(4-(4-(trifluoromethyl)pyrazolo[1,5-a]pyridin-2-yl)-6,7-dihydro-1H-imidazo[4,5-c]pyridin-5(4H)-yl)methanone] | > 5000 |
| Cc1nc(C(C)(C)O)oc1C(=O)N1CCc2[nH]cnc2[C@@H]1c1cc2c(Cl)cccn2n1 [Example 725, (R)-(4-(4-chloropyrazolo[1,5-a]pyridin-2-yl)-6,7-dihydro-1H-imidazo[4,5-c]pyridin-5(4H)-yl)(2-(2-hydroxypropan-2-yl)-4-methyloxazol-5-yl)methanone] | > 5000 |
| Cc1cccn2nc([C@@H]3c4nc[nH]c4CCN3C(=O)c3ncnn3C)cc12 [Example 838, (S)-(1-methyl-1H-1,2,4-triazol-5-yl)(4-(4-methylpyrazolo[1,5-a]pyridin-2-yl)-6,7-dihydro-1H-imidazo[4,5-c]pyridin-5(4H)-yl)methanone] | < 500 |
| O=C(c1ccnn1C(F)F)N1CCc2[nH]cnc2[C@H]1c1cc2cccc(Cl)n2n1 [Example 1064, (S)-(4-(7-chloropyrazolo[1,5-a]pyridin-2-yl)-6,7-dihydro-1H-imidazo[4,5-c]pyridin-5(4H)-yl)(1-(difluoromethyl)-1H-pyrazol-5-yl)methanone] | 500 to 1000 |
| Cn1cnc(-c2nnc(C(=O)N3CCc4[nH]cnc4[C@H]3c3cc4cccc(C(F)(F)F)n4n3)o2)c1 [Example 1032, (S)-(5-(1-methyl-1H-imidazol-4-yl)-1,3,4-oxadiazol-2-yl)(4-(7-(trifluoromethyl)pyrazolo[1,5-a]pyridin-2-yl)-6,7-dihydro-1H-imidazo(4,5-c]pyridin-5(4H)-yl)methanone] | 500 to 1000 |
| Cc1c([C@H]2c3nc[nH]c3CCN2C(=O)c2ocnc2C(F)F)nn2ccccc12 [Example 785, (R)-(4-(difluoromethyl)oxazol-5-yl)(4-(3-methylpyrazolo[1,5-a]pyridin-2-yl)-6,7-dihydro-1H-imidazo[4,5-c]pyridin-5(4H)-yl)methanone] | 1000 to 5000 |
| Cn1nc(C2CC2)nc1C(=O)N1CCc2[nH]cnc2[C@H]1c1cc2c(Cl)cccn2n1 [Example 1072, (S)-(4-(4-chloropyrazolo[1,5-a]pyridin-2-yl)-6,7-dihydro-1H-imidazo[4,5-c]pyridin-5(4H)-yl)(3-cyclopropyl-1-methyl-1H-1,2,4-triazol-5-yl)methanone] | 500 to 1000 |
| Cn1cc(-c2nnc(C(=O)N3CCc4[nH]cnc4[C@@H]3c3cc4ccc(F)cn4n3)o2)cn1 [Example 1101, (R)-(4-(6-fluoropyrazolo[1,5-a]pyridin-2-yl)-6,7-dihydro-1H-imidazo[4,5-c]pyridin-5(4H)-yl)(5-(1-methyl-1H-pyrazol-4-yl)-1,3,4-oxadiazol-2-yl)methanone] | > 5000 |
| Cc1cccc2cc([C@@H]3c4nc[nH]c4CCN3C(=O)c3nnc(C(C)(C)C)o3)nn12 [Example 1020, (S)-(5-(tert-butyl)-1,3,4-oxadiazol-2-yl)(4-(7-methylpyrazolo[1,5-a]pyridin-2-yl)-6,7-dihydro-1H-imidazo[4,5-c]pyridin-5(4H)-yl)methanone] | < 500 |
| N#Cc1ncoc1C(=O)N1CCc2[nH]cnc2[C@H]1c1cc2ccc(Cl)cn2n1 [Example 684, (S)-5-(4-(6-chloropyrazolo[1,5-a]pyridin-2-yl)-4,5,6,7-tetrahydro-1H-imidazo[4,5-c]pyridine-5-carbonyl)oxazole-4-carbonitrile] | 500 to 1000 |
| O=C(c1nnc(-c2ccc(C(F)(F)F)cc2)o1)N1CCc2[nH]cnc2[C@@H]1c1cc2ccccn2n1 [Example 643, (R)-(4-(pyrazolo[1,5-a]pyridin-2-yl)-6,7-dihydro-1H-imidazo[4,5-c]pyridin-5(4H)-yl)(5-(4-(trifluoromethyl)phenyl)-1,3,4-oxadiazol-2-yl)methanone] | > 5000 |
| Cc1cccn2nc([C@@H]3c4nc[nH]c4CCN3C(=O)c3nc(C(F)(F)F)nn3C)cc12 [Example 1056, (S)-(1-methyl-3-(trifluoromethyl)-1H-1,2,4-triazol-5-yl)(4-(4-methylpyrazolo[1,5-a]pyridin-2-yl)-6,7-dihydro-1H-imidazo[4,5-c]pyridin-5(4H)-yl)methanone] | < 500 |

Further lines, results first:

| AC50 [nM] | Compound |
| --- | --- |
| > 5000 | O=C(c1nnc(-c2ccn(C(F)(F)F)n2)o1)N1CCc2[nH]cnc2[C@@H]1c1cc2c(OC(F)F)cccn2n1 [Example 1709, (R)-(4-(4-(difluoromethoxy)pyrazolo[1,5-a]pyridin-2-yl)-6,7-dihydro-1H-imidazo[4,5-c]pyridin-5(4H)-yl)(5-(1-(trifluoromethyl)-1H-pyrazol-3-yl)-1,3,4-oxadiazol-2-yl)methanone] |
| 500 to 1000 | Cc1cccn2nc([C@@H]3c4nc[nH]c4CCN3C(=O)c3cnn4cc(-c5ccccn5)ccc34)cc12 [Example 1648, (S)-(4-(4-methylpyrazolo[1,5-a]pyridin-2-yl)-6,7-dihydro-1H-imidazo[4,5-c]pyridin-5(4H)-yl)(6-(pyridin-2-yl)pyrazolo[1,5-a]pyridin-3-yl)methanone] |
| < 500 | O=C(c1nnc(-c2cccnc2)o1)N1CCc2[nH]cnc2[C@H]1c1cc2c(C(F)F)cccn2n1 [Example 1422, (S)-(4-(4-(difluoromethyl)pyrazolo[1,5-a]pyridin-2-yl)-6,7-dihydro-1H-imidazo[4,5-c]pyridin-5(4H)-yl)(5-(pyridin-3-yl)-1,3,4-oxadiazol-2-yl)methanone] |
| > 5000 | CC(C)(F)c1nnc(C(=O)N2CCc3[nH]cnc3[C@@H]2c2cc3c(Cl)cccn3n2)o1 [Example 1108, (R)-(4-(4-chloropyrazolo[1,5-a]pyridin-2-yl)-6,7-dihydro-1H-imidazo[4,5-c]pyridin-5(4H)-yl)(5-(2-fluoropropan-2-yl)-1,3,4-oxadiazol-2-yl)methanone] |
| < 500 | O=C(c1nnc(-c2ccn(C(F)(F)F)n2)o1)N1CCc2[nH]cnc2[C@H]1c1cc2c(OC(F)(F)F)cccn2n1 [Example 1706, (S)-(4-(4-(trifluoromethoxy)pyrazolo[1,5-a]pyridin-2-yl)-6,7-dihydro-1H-imidazo[4,5-c]pyridin-5(4H)-yl)(5-(1-(trifluoromethyl)-1H-pyrazol-3-yl)-1,3,4-oxadiazol-2-yl)methanone] |
| 500 to 1000 | O=C(c1nnc(-c2ncccc2F)o1)N1CCc2[nH]cnc2[C@H]1c1cc2c(OC(F)F)cccn2n1 [Example 1657, (S)-(4-(4-(difluoromethoxy)pyrazolo[1,5-a]pyridin-2-yl)-6,7-dihydro-1H-imidazo[4,5-c]pyridin-5(4H)-yl)(5-(3-fluoropyridin-2-yl)-1,3,4-oxadiazol-2-yl)methanone] |
